Experiments:
ob/ob mice = test: Metabolic profile of ob/ob mice; type: in vivo
Experimental: FIG. 6A and FIG. 6B each indicates the fasting blood sugar and the body weights respectively from ob/ob mice which were treated with vehicle control or (50 mg/kg/2 days) for 8 weeks. FIG. 6C indicates the amount of feed intake from ob/ob mice which were treated with vehicle control or for 8 weeks. FIG. 6D and FIG. 6E each indicates the IPGTT results and AUC value measured after the 8 week administration. FIG. 6F and FIG. 6G indicates the ITT results and AUC value measured after the 8 week administration. FIG. 6H indicates the fasting blood sugar after the 8 week administration. FIG. 6I indicates the concentration of insulin after the 8 week administration. FIG. 6J indicate the result of HOMA-IR measured after the 8 week administration. FIG. 6K indicates the results the Insulinogenic index measured after the 8 week administration. Error bars, S.D. *, P<0.05; **, P<0.01; ***, P<0.001. Students t-test and one-way ANOVA.
FIG. 8A is the result of Hematoxylin-Eosin stained liver section from ob/ob mice treated with MSL compound or vehicle for 8 weeks. FIG. 8B is the result of measuring the concentration of TG using free glycerol reagent containing lipase in the lipid sample extracted using a mixture of chloroform/ethanol from the liver of ob/ob mice. FIG. 8C is the result of blood chemistry profile analyzed using chemical analyzer from serum sample obtained from ob/ob mice treated with MSL compound or vehicle for 8 weeks. FIG. 8D is the result of Hematoxylin-Eosin stained white adipose tissue section from ob/ob mice treated with MSL compound or vehicle for 8 weeks. FIG. 8E is the immuno-stained result of F4/80+ cells from white adipose tissue (left) and the quantification result of adipose cell F4/80+ CLS (right) indicated as a frequency of CLS (crown-like structures) in the white adipose tissue of the mice as described above. FIG. 8F is the result of quantifying the expression of WAT gene from the mice as described above using RT-PCR. Error bars, S.D. *, P<0.05; **, P<0.01; ***, P<0.001.
FIG. 11A is the result of fasting glucose concentration of ob/ob mice administered with vehicle control or MSL-7 (50 mg/kg/2 days) for 8 weeks. FIG. 11B is the body weight monitored of the mice of FIG. 11A. FIG. 11C is the result of experiments performed at 8 weeks after the administration of IPGTT (FIG. 1 IC) and ITT (FIG. 11D). FIG. 11E is the results of measuring blood chemistry profile of the ob/ob mice administered with vehicle control or MSL-7 compound for 8 weeks using chemical analyzer. Error bars, S.D. *, P<0.05; **, P<0.01; ***, P<0.001. Students t-test and one-way ANOVA. […]
We next studied whether MSL can activate autophagic flux in vivo. When we administered MSL after pretreatment with leupeptin (Ueno, T et al. (1991) Membrane markers of endoplasmic reticulum preserved in autophagic vacuolar membranes isolated from leupeptin-administered rat liver. J Biol Chem 266, 18995-18999), LC3-I to -II conversion was increased in the liver, supporting that MSL can increase autophagic flux in vivo. We next studied whether MSL administration can improve metabolic profile associated with obesity. We treated ob/ob mice with MSL at 50 mg/kg for 8 weeks.

Hepa1c1c7 cells = test: Lipid droplet clearance after PA and OA loading; type: cell-based

SMILES	body weight (ob/ob mice; 50 mg/kg, 8 weeks)	non-fasting blood glucose level (ob/ob mice; 50 mg/kg, 8 weeks)	glucose tolerance (IPGTT) (ob/ob mice; 8 weeks)	insulin sensitivity (ITT) (ob/ob mice; 8 weeks)	lipid content in cells loaded with PA and OA (Hepa1c1c7 cells)	content of lipid droplets stained BODIPY (Hepa1c1c7 cells; PA and OA loaded, 16 h)	Food intake (ob/ob mice; 50 mg/kg, 8 weeks)	AUC of IPGTT and ITT (ob/ob mice; 8 weeks)	Fasting blood glucose levels (ob/ob mice; 8 weeks)	HOMA-IR index (ob/ob mice; 8 weeks)	Serum ALT/ASL levels (ob/ob mice; 8 weeks)	number of crown-like structures (CLSs) in WAT (ob/ob mice; 8 weeks)	accumulation of lipid droplets in the liver (ob/ob mice; 8 weeks, H&E)	expression of inflammatory markers (Tnfa, I-16, II-1β, F4/80), real-time RT-PCR (ob/ob mice; WAT, 8 weeks)	liver lipid content (Oil Red O staining) (ob/ob mice; data not shown)
COc1oc(-c2ccccc2Cl)nc1S(=O)(=O)c1ccccc1 [MSL-7, 2-(2-chlorophenyl)-5-methoxy-4-(phenylsulfonyl) oxazole]	without significant effect on body weight	significantly improved	significantly improved	significantly improved											
CSc1oc(-c2ccccc2)nc1S(=O)(=O)c1ccc(F)cc1 [MSL]	not affected	significantly decreased	significant improvement	significant improvement	significantly reduced	significantly decreased	not affected	reduced	significantly improved	slightly decreased	significantly reduced	significantly decreased	apparently reduced	significantly reduced	decreased
